No end group written: not given here.
Key:
Format in all cases: in vivo, mouse
[1] = test system: C57/BL6 mice; assay: Induction of acute EAE by active immunization with MOG peptide 35-55; design: dose or concentration left out as unconfirmed; settings: day 21, s.c. immunization with peptide in IFA, pertussis toxin, FIG. 1
[2] = test system: SOCS-1; assay: Quantitative PCR of SOCS-1 transcripts in spleen and spinal cord of SIRS peptide-fed EAE mice; settings: for SOCS-1 transcript level in CNS target tissue normalized to b-actin: spinal cord, day 23-26 post active immunization
Source text: (§1) Quantitative PCR can be performed for nominal EAE cytokine or transcript of interest. In particular, the mean measured transcript levels for IL-2/IFN-γ (Th1-like), IL-4/IL-10 (Th2-like) and other nominal biologic response modifiers of interest (e.g. TGF-β, IL-1, IL-6, IL-12, TNF-α) will be normalized to the b-actin control and expressed as % b-actin molecules.
(§2) Inflamed spinal cords from soluble immune response suppressor peptide-fed B6 mice (active treatment group) or from mock fed donor mice (control) were utilized for the experiments below. Intact spinal cord can be ejected by injecting saline into the distal end of the spinal canal and stored in RNALater (Ambion). The spinal cord is disrupted and the resulting cell suspension is filtered through a Falcon Cell Strainer 2350 (Becton Dickinson, San Jose, Calif.). Total RNA was processed on day 23-26 post active immunization, and relative numbers of transcripts for IFN-γ, IL-4, IL-10, SOCS-1, SOCS-2, and SOCS-3 were determined by quantitative PCR. The measured mean transcript levels were normalized to b-actin control (normalization mean=COI mean/b-actin×100) and expressed as % b-actin molecules.

[3] = test system: acute EAE in B6 mice; assay: Ingested (gavaged) SIRS peptide 1-21 in acute EAE induced by MOG peptide 35-55
[4] = test system: SOCS-1; assay: Quantitative PCR of SOCS-1 transcripts in spleen and spinal cord of SIRS peptide-fed EAE mice; settings: for Splenic SOCS-1 transcript level normalized to b-actin: spleen, day 23-26 post active immunization
[5] = test system: SOCS-2; assay: Quantitative PCR of SOCS-2 transcripts in spleen and spinal cord of SIRS peptide-fed EAE mice
Source text: as §1, §2

[6] = test system: diabetes mellitus in NOD mice; assay: Ingested SIRS peptide 1-21 in spontaneous diabetes of NOD mice; settings: NOD female mice fed 100 μg daily from age ten weeks, FIG. 6 and FIG. 7
Description: NOD female mice (NOD MrkTacfBR) were obtained from Taconic Farms at eight weeks of age and feeding with mock (n=12) or 100 μg SIRS peptide 1-21 (n=6) in 0.1 ml DPBS daily was initiated at ten weeks. One hundred micrograms was used because this was an effective dose for inhibiting EAE (experimental autoimmune encephalomyelitis) in mice. The mice were maintained and fed under SPF conditions in microisolators, and handled under negative pressure sterile hoods. Surveillance mice were maintained with experimental mice and examined regularly for routine murine pathogens.
Mice were followed after initiation of feeding by weekly blood glucose determination (Life Scan One Touch II, Johnson & Johnson) beginning at week 18 thru 22. Animals were considered diabetic if two consecutive blood glucose determinations were above >11.1 mmol/l or >[…]. […]
Mock or SIRS peptide 1-21 was administered using a 2.5 cm syringe fitted with a 22-24 gauge ball point needle directly to the stomach and proximal small intestine (Thomas Scientific, Swedesboro, N.J.) daily to NOD mice beginning at age ten weeks. The peptide was directly delivered to the distal esophagus, stomach and proximal small intestine (as determined experimentally by injecting Evans blue during routine feeding and subsequent sacrifice). […]

[7] = test system: IL-4; assay: Quantitative PCR of IL-4 transcripts in spleen and spinal cord of SIRS peptide-fed EAE mice; settings: for IL-4 transcript level in CNS target tissue normalized to b-actin: spinal cord, day 23-26 post active immunization
Source text: as §1, §2

[8] = test system: SOCS-3; assay: Quantitative PCR of SOCS-3 transcripts in spleen and spinal cord of SIRS peptide-fed EAE mice; settings: for SOCS-3 transcript level in CNS target tissue normalized to b-actin: spinal cord, day 23-26 post active immunization
Source text: as §1, §2

[9] = test system: IFN-γ; assay: Quantitative PCR of IFN-γ transcripts in spleen and spinal cord of SIRS peptide-fed EAE mice
Source text: as §1, §2

[10] = test system: SOCS-3; assay: Quantitative PCR of SOCS-3 transcripts in spleen and spinal cord of SIRS peptide-fed EAE mice; settings: for Splenic SOCS-3 transcript level normalized to b-actin: spleen, day 23-26 post active immunization
[11] = test system: IL-10; assay: Quantitative PCR of IL-10 transcripts in spleen and spinal cord of SIRS peptide-fed EAE mice
Source text: as §1, §2

[12] = test system: acute EAE in B6 mice; assay: Parenteral (injected) SIRS peptide 1-21 in acute EAE induced by MOG peptide 35-55; settings: day −7 through day 14 post immunization, n=8/group; for inhibition of EAE compared to placebo: FIG. 2
[13] = test system: EAE in B6 recipients; assay: Adoptive transfer of MOG-restimulated splenocytes from SIRS peptide-injected donors to B6 recipients; settings: recipients of 10×10^6 MOG-activated splenocytes i.p. from donors injected with 10 mg day −7 through day +14, FIG. 3
Description: B6 mice effector donors were actively immunized with myelin oligodendrocyte glycoprotein peptide 35-55 described above (day 0) and injected (day −7 through day +14 post-immunization) with 0.1 ml of control saline (n=8) or 10 mg of soluble immune response suppressor peptide 1-21 (n=8). On day 14 post inoculation, splenocytes from both saline-injected (mock control) and soluble immune response suppressor peptide-injected (active treatment) immunized donor mice were re-stimulated in vitro with […] myelin oligodendrocyte glycoprotein peptide 35-55 at 20×10^6 splenocytes for >1 hour and then diluted to 2-4 million cells/ml and cultured for 48-72 hours in RPMi with 10% FCS and 1% Pen/Strep. Myelin oligodendrocyte glycoprotein-restimulated cells were washed, counted and passively transferred (10×10^6) i.p. into 8-10 week old female B6 recipients.
The control group reached a maximum disease score of 2.1.

[14] = CNS target organ (spinal cord) of peptide-fed mice
[15] = splenic samples from peptide-fed mice
[16] = splenic samples, data not shown

Question: How did the “mean clinical score (scale 0-6)” value [1] turn out when “MEVGWYRSPFSRVVHLYRNGK [Synthetic peptide 35-55 from myelin oligodendrocyte glycoprotein, used to induce EAE]” was run?
Answer: 3.44

Question: Which results are given for MTEENQQSSQPKTTINNAGDS?
Answer: increase in SOCS-1 expression [2, 14]: 75-175 % of control; SOCS-1 transcript level in CNS target tissue normalized to b-actin ([2]; fed 0.1 mg): 0.14 % b-actin molecules; SOCS-1 transcript level in CNS target tissue normalized to b-actin ([2]; fed 1 mg): 0.19 % b-actin molecules; SOCS-1 transcript level in CNS target tissue normalized to b-actin ([2]; fed 10 mg): 0.22 % b-actin molecules; SOCS-1 transcript level in CNS target tissue normalized to b-actin ([2]; fed 100 mg): 0.14 % b-actin molecules; delay in the onset of disease compared to placebo ([3]; 0.1 mg gavaged, FIG. 4): prolonged delay in the onset of disease; inhibition of EAE disease severity compared to placebo ([3]; 0.1 mg gavaged, day −7 through day 14, n=4/group, FIG. 4): significant inhibition of disease severity; inhibition of EAE disease severity compared to placebo ([3]; 0.1 mg gavaged, day −7 through day 14, n=4/group, FIG. 4, listed as soluble immune response suppressor peptide): significant inhibition; inhibition of EAE compared to placebo ([3]; 0.1 mg gavaged, repeat experiment, n=4/group, FIG. 5): no significant inhibition; inhibition of EAE compared to placebo ([3]; 1 mg gavaged, day −7 through day 14, n=4/group, FIG. 4): significant inhibition; delay in the onset of disease compared to placebo ([3]; 1 mg gavaged, repeat experiment, FIG. 5): prolonged delay in the onset of disease; inhibition of disease severity compared to placebo ([3]; 1 mg gavaged, repeat experiment, FIG. 5, p<0.038 Mann-Whitney): significant inhibition of disease severity; delay in the onset of disease compared to placebo ([3]; 10 mg gavaged, FIG. 4): prolonged delay in the onset of disease; inhibition of disease severity compared to placebo ([3]; 10 mg gavaged, day −7 through day 14, n=4/group, FIG. 4): significant inhibition of disease severity; delay in the onset of disease compared to placebo ([3]; 100 mg gavaged, FIG. 4): prolonged delay in the onset of disease; inhibition of disease severity compared to placebo ([3]; 100 mg gavaged, day −7 through day 14, n=4/group, FIG. 4): significant inhibition of disease severity; delay in the onset of disease compared to placebo ([3]; 100 mg gavaged, repeat experiment, FIG. 5): prolonged delay in the onset of disease; inhibition of disease severity compared to placebo ([3]; 100 mg gavaged, repeat experiment, FIG. 5, p<0.001): significant inhibition of disease severity; Splenic SOCS-1 transcript level normalized to b-actin ([4]; fed 0.1 mg): 0.28 % b-actin molecules; Splenic SOCS-1 transcript level normalized to b-actin ([4]; fed 1 mg): 0.30 % b-actin molecules; Splenic SOCS-1 transcript level normalized to b-actin ([4]; fed 10 mg): 0.23 % b-actin molecules; Splenic SOCS-1 transcript level normalized to b-actin ([4]; fed 100 mg): 0.23 % b-actin molecules; decrease in SOCS-1 compared to control [4, 15]: up to 30%; difference in SOCS-2 compared to control ([5]; cord samples): no significant differences; difference in SOCS-2 compared to control [5, 16]: no significant difference; frequency of mice becoming diabetic compared to mock treated mice [6]: decreased frequency of mice becoming diabetic; onset of T1DM compared to mock treated mice [6]: significantly delayed onset of T1DM; decrease in IL-4 expression [7, 14]: up to 80%; IL-4 transcript level in CNS target tissue normalized to b-actin ([7]; fed 0.1 mg): 0.04 % b-actin molecules; IL-4 transcript level in CNS target tissue normalized to b-actin ([7]; fed 1 mg): 0.15 % b-actin molecules; IL-4 transcript level in CNS target tissue normalized to b-actin ([7]; fed 10 mg): 0.05 % b-actin molecules; IL-4 transcript level in CNS target tissue normalized to b-actin ([7]; fed 100 mg): 0.02 % b-actin molecules; difference in IL-4 compared to control [7, 16]: no significant difference; decrease in SOCS-3 [8, 14]: 45%; SOCS-3 transcript level in CNS target tissue normalized to b-actin ([8]; fed 0.1 mg): 0.45 % b-actin molecules; SOCS-3 transcript level in CNS target tissue normalized to b-actin ([8]; fed 1 mg): 0.54 % b-actin molecules; SOCS-3 transcript level in CNS target tissue normalized to b-actin ([8]; fed 10 mg): 0.28 % b-actin molecules; SOCS-3 transcript level in CNS target tissue normalized to b-actin ([8]; fed 100 mg): 0.22 % b-actin molecules; difference in IFN-γ compared to control ([9]; cord samples): no significant differences; difference in IFN-γ compared to control [9, 16]: no significant difference; Splenic SOCS-3 transcript level normalized to b-actin ([10]; fed 0.1 mg): 0.38 % b-actin molecules; Splenic SOCS-3 transcript level normalized to b-actin ([10]; fed 1 mg): 0.28 % b-actin molecules; Splenic SOCS-3 transcript level normalized to b-actin ([10]; fed 10 mg): 0.21 % b-actin molecules; Splenic SOCS-3 transcript level normalized to b-actin ([10]; fed 100 mg): 0.18 % b-actin molecules; decrease in SOCS-3 compared to control [10, 15]: 60%; difference in IL-10 compared to control ([11]; cord samples): no significant differences; difference in IL-10 compared to control [11, 16]: no significant difference; inhibition of EAE compared to placebo ([12]; 0.1 mg injected): no significant inhibition; inhibition of EAE compared to placebo ([12]; 1 mg injected): no significant inhibition; inhibition of disease severity compared to placebo ([12]; 10 mg injected (s.c.), FIG. 2, ρ<0.001): significant inhibition of disease severity; clinical disease in recipients after passive transfer [13]: did not have any prolonged clinical disease
